Data taken from ChEMBL document CHEMBL1128794, “Rational design of irreversible, pseudo-C2-symmetric hiv-1 protease inhibitors” (Bioorg Med Chem Lett, 1995).

Tests used:
[1] = target: Human immunodeficiency virus type 1 protease (Human immunodeficiency virus 1, UniProt Q72874); experiment: Compound was tested for the inhibition activity against HIV-1 protease
[2] = target: Human immunodeficiency virus type 1 protease (Human immunodeficiency virus 1) (UniProt Q72874); experiment: Ratio of inactivation constant (Kina) and inhibition constant (Ki) was determined
SUP-T1 [3] = experiment: Tested for the inhibitory activity against HIV-1 in Sup T1 cell lines assessed by syncytium formation and reverse transcriptase assay; type: functional, cell-based; conditions: Homo sapiens
H9 [4] = experiment: Tested for the inhibitory activity against HIV-1 in H-9 cell lines assessed by syncytium formation and reverse transcriptase assay; type: functional, cell-based; conditions: Homo sapiens
H9 [5] = experiment: Tested for the inhibitory activity against HIV-1 in H-9 and Sup T1 cell lines assessed by syncytium formation and reverse transcriptase assay; type: functional, cell-based; conditions: Homo sapiens
H9 [6] = experiment: 50% Cytoxic value against HIV-1 in H-9 cell lines was evaluated; type: functional, Homo sapiens
SUP-T1 [7] = experiment: 50% Cytoxic value against HIV-1 in Sup T1 cell lines was evaluated; type: functional, Homo sapiens
[8] = target: Human immunodeficiency virus type 1 protease (Human immunodeficiency virus 1) (UniProt Q72874); experiment: Rate of irreversible inactivation of HIV 1 protease by the compound was determined

Row | Structure (SMILES) | Ki [1] [nM] | K inact/Ki [2] [M⁻¹ s⁻¹] | other results
1 | CC(C)[C@H](NC(=O)N(C)Cc1ccccn1)C(=O)NC[C@@H]1O[C@@H]1[C@H](Cc1ccccc1)NC(=O)[C@H](NC(=O)N(C)Cc1ccccn1)C(C)C | 16 | 367000 | 
2 | CC(C)(C)NC(=O)[C@@H]1C[C@@H]2CCCC[C@@H]2CN1C[C@@H](O)[C@H](Cc1ccccc1)NC(=O)[C@H](CC(N)=O)NC(=O)c1ccc2ccccc2n1 [SAQUINAVIR] |  |  | IC50 (SUP-T1 [3]): 20 nM; IC50 (H9 [4]): 20 nM
3 | CC(C)[C@H](NC(=O)OCc1ccccn1)C(=O)NC[C@@H]1O[C@@H]1[C@H](Cc1ccccc1)NC(=O)[C@H](NC(=O)OCc1ccccn1)C(C)C | 11 | 383000 | 
4 | CC(C)[C@H](NC(=O)OCc1ccccc1)C(=O)NC[C@@H]1O[C@@H]1[C@H](Cc1ccccc1)NC(=O)[C@H](NC(=O)OCc1ccccc1)C(C)C | 0.1 | 2.5e+06 | IC50 (SUP-T1 [3]): 30 nM; IC50 (H9 [5]): 30 nM; CT50 (H9 [6]): >100 µM; CT50 (SUP-T1 [7]): >100 µM
5 | CC(C)[C@H](NC(=O)N(C)Cc1ccccn1)C(=O)N[C@@H](Cc1ccccc1)[C@@H](O)[C@H](O)[C@H](Cc1ccccc1)NC(=O)[C@@H](NC(=O)N(C)Cc1ccccn1)C(C)C | < 1 |  | 
6 | O=[N+]([O-])c1ccc(OCC2CO2)cc1 (centres undefined) |  |  | Kina [8]: 0.004 min⁻¹
7 | Cc1cn([C@H]2C[C@H](N=[N+]=[N-])[C@@H](CO)O2)c(=O)[nH]c1=O [ZIDOVUDINE] |  |  | IC50 (SUP-T1 [3]): 50 nM; IC50 (H9 [4]): 50 nM
8 | CC(C)[C@H](NC(=O)OCc1ccccc1)C(=O)NC(C)[C@@H]1O[C@@H]1[C@H](Cc1ccccc1)NC(=O)[C@H](NC(=O)OCc1ccccc1)C(C)C (some centres undefined) | 4 | 667000 | 
9 | CC(C)[C@H](NC(=O)OCc1cccnc1)C(=O)NC[C@@H]1O[C@@H]1[C@H](Cc1ccccc1)NC(=O)[C@H](NC(=O)OCc1cccnc1)C(C)C | 70 | 23300 | 
10 | CC(C)[C@H](NC(=O)OCc1ccccc1)C(=O)N[C@@H](Cc1ccccc1)C1OC1[C@H](Cc1ccccc1)NC(=O)[C@@H](NC(=O)OCc1ccccc1)C(C)C (some centres undefined) | 75 |  | 
11 | CC(C)[C@H](NC(=O)OCc1ccncc1)C(=O)NC[C@@H]1O[C@@H]1[C@H](Cc1ccccc1)NC(=O)[C@H](NC(=O)OCc1ccncc1)C(C)C | 300 | 5670 | 
12 | CC(C)[C@H](NC(=O)OCc1ccccc1)C(=O)N[C@@H](Cc1ccccc1)[C@H](O)[C@H](O)[C@H](Cc1ccccc1)NC(=O)[C@@H](NC(=O)OCc1ccccc1)C(C)C | < 1 |  | 
